Assay results published in patent US9840510B1, “Pyrazolo[1,5-a]pyrimidinyl carboxamide compounds and their use in the treatment of medical disorders” (Lysosomal Therapeutics Inc., priority 2016, dated 2017).
In brackets after ≈: the same amount, converted by molar mass.

Assay: Compound solubility in water
Type: physicochemical

Row | Structure (SMILES) | solubility [µg/mL] | Compound Solubility in Water [µg/mL]
1 | Cc1cc(-c2ccc(F)cc2)nc2c(C(=O)N[C@@H](C)C3CC3)cnn12 [III-7] | 1.6 (≈ 4.73 µM) | –
2 | Cc1ncc(-c2cc(C)n3ncc(C(=O)N[C@@H](C4CC4)C(F)(F)F)c3n2)o1 [III-248] | 0.7 (≈ 1.85 µM) | –
3 | Cc1cc(N2CC(C)(C)NC2=O)nc2c(C(=O)NC(C3CC3)C(F)(F)F)cnn12 (centres unmarked) [III-319] | 1.3 (≈ 3.17 µM) | –
4 | Cc1cc(N2C[C@@H](c3ccccc3)OC2=O)nc2c(C(=O)NC(C3CC3)C(F)(F)F)cnn12 (some centres unmarked) [III-315] | 0.1 (≈ 0.218 µM) | –
5 | Cc1cc(-c2cccc(Cl)n2)nc2c(C(=O)N[C@@H](C)C3CC3)cnn12 [III-131] | 0.6 (≈ 1.69 µM) | –
6 | Cc1cc(-c2cc(F)ccc2C#N)nc2c(C(=O)N[C@@H](C)C3CC3)cnn12 [III-396] | 0.3 (≈ 0.826 µM) | –
7 | COc1c(F)cccc1-c1cc(C)n2ncc(C(=O)NC(C)C(F)(F)F)c2n1 (centres unmarked) [III-140] | 1.1 (≈ 2.78 µM) | –
8 | Cc1cc(-c2ccc(F)cc2)nc2c(C(=O)NC(C3CC3)C(F)(F)F)cnn12 (centres unmarked) [III-163] | 0.4 (≈ 1.02 µM) | –
9 | Cc1cc(-c2ccc(C#N)nc2)nc2c(C(=O)N[C@H](C3CC3)C(F)(F)F)cnn12 [III-367] | 0.4 (≈ 0.999 µM) | –
10 | Cc1cc(-c2ccns2)nc2c(C(=O)NC(C3CC3)C(F)(F)F)cnn12 (centres unmarked) [III-411] | 0.7 (≈ 1.84 µM) | –
11 | Cc1cc(-c2cc(F)ccc2C#N)nc2c(C(=O)N[C@@H](C)C(F)(F)F)cnn12 [III-350] | 0.3 (≈ 0.767 µM) | –
12 | Cc1cc(-c2cc(Cl)ccn2)nc2c(C(=O)NC(C3CC3)C(F)(F)F)cnn12 (centres unmarked) [III-207] | 0.6 (≈ 1.46 µM) | –
13 | Cc1cc(-c2cccc3ncsc23)nc2c(C(=O)N[C@@H](C)C3CC3)cnn12 [III-222] | 0.6 (≈ 1.59 µM) | –
14 | Cc1cc(-c2cccnc2)nc2c(C(=O)N[C@H]3CC[C@H](OCC(C)C)CC3)cnn12 [III-39] | 4.4 (≈ 10.8 µM) | –
15 | Cc1cc(-c2cccc(Cl)n2)nc2c(C(=O)N[C@@H](C)C(F)(F)F)cnn12 [III-236] | 5.9 (≈ 15.4 µM) | –
16 | COc1cc(-c2cc(C)n3ncc(C(=O)N[C@@H](C)C4CC4)c3n2)ccc1F [III-145] | 0.2 (≈ 0.543 µM) | –
17 | Cc1cc(-c2cncc(C(F)(F)F)c2)nc2c(C(=O)NC(C)C(F)(F)F)cnn12 (centres unmarked) [III-285] | 1.2 (≈ 2.88 µM) | –
18 | Cc1cc(-c2cccc3nc[nH]c23)nc2c(C(=O)NC(C3CC3)C(F)(F)F)cnn12 (centres unmarked) [III-308] | 4.6 (≈ 11.1 µM) | –
19 | Cc1cc(-c2cccc(C(=O)N(C)C)c2)nc2c(C(=O)NC(C3CC3)C(F)(F)F)cnn12 (centres unmarked) [III-413] | 6 (≈ 13.5 µM) | –
20 | Cc1cc(N2CCCCC2)nc2c(C(=O)NC(C)(C)C3CC3)cnn12 [III-23] | 6.8 (≈ 19.9 µM) | –
21 | Cc1cc(-c2cccc(Cl)n2)nc2c(C(=O)NC(C3CC3)C(F)(F)F)cnn12 (centres unmarked) [III-237] | 0.05 (≈ 0.122 µM) | –
22 | Cc1cc(N2CCOCC2)nc2c(C(=O)NC(C)(C)C3CC3)cnn12 [III-59] | 10.3 (≈ 30 µM) | –
23 | Cc1cc(N2CCCCC2)n2ncc(C(=O)NC(C)(C)C3CC3)c2n1 [III-22] | 0.5 (≈ 1.46 µM) | –
24 | COc1ccc(-c2cc(C)n3ncc(C(=O)N[C@@H](C)C(F)(F)F)c3n2)cn1 [III-273] | 3.4 (≈ 8.96 µM) | –
25 | Cc1cc(-c2ccc(F)cc2)nc2c(C(=O)N[C@H](C)C3CC3)cnn12 [III-86] | 2.8 (≈ 8.27 µM) | –
26 | Cc1cc(C)n2ncc(C(=O)NC(C)(C)C3CC4(CCC4)C3)c2n1 [III-13] | 0.3 (≈ 0.919 µM) | –

Row | Structure (SMILES) | solubility [µg/mL] | Compound Solubility in Water [µg/mL]
27 | Cc1cc(-c2cccc(F)n2)nc2c(C(=O)N[C@@H](C)C3CC3)cnn12 [III-134] | 0.8 (≈ 2.36 µM) | –
28 | Cc1cc(-c2cccc(-c3ncncn3)c2)nc2c(C(=O)NC(C3CC3)C(F)(F)F)cnn12 (centres unmarked) [III-177] | 0.2 (≈ 0.441 µM) | –
29 | C#CC(NC(=O)c1cnn2c(C)cc(-c3cccc(OC)c3)nc12)C(F)(F)F (centres unmarked) [III-96] | 2 (≈ 5.15 µM) | –
30 | COc1ccc(-c2cc(C)n3ncc(C(=O)NC(C4CC4)C(F)(F)F)c3n2)cn1 (centres unmarked) [III-268] | 1.2 (≈ 2.96 µM) | –
31 | Cc1cc(-c2cc(C)n3ncc(C(=O)N[C@@H](C4CC4)C(F)(F)F)c3n2)sn1 [III-216] | 0.9 (≈ 2.28 µM) | –
32 | Cc1cc(N2CCNC2=O)nc2c(C(=O)NC(C3CC3)C(F)(F)F)cnn12 (centres unmarked) [III-228] | 2.4 (≈ 6.28 µM) | –
33 | Cc1cc(-c2cccnc2F)nc2c(C(=O)N[C@H](C3CC3)C(F)(F)F)cnn12 [III-114] | 2.1 (≈ 5.34 µM) | –
34 | Cc1cc(N2CCC(F)(F)C2)nc2c(C(=O)NC(C3CC3)C(F)(F)F)cnn12 (centres unmarked) [III-67] | 1.9 (≈ 4.71 µM) | –
35 | Cc1cc(N2CCN(CC(F)(F)F)C2=O)nc2c(C(=O)NC(C3CC3)C(F)(F)F)cnn12 (centres unmarked) [III-233] | 0.7 (≈ 1.51 µM) | –
36 | Cc1cc(-c2cnccc2Cl)nc2c(C(=O)NC(C3CC3)C(F)(F)F)cnn12 (centres unmarked) [III-122] | 2.1 (≈ 5.12 µM) | –
37 | Cc1cc(N2CCCC(F)(F)C2)nc2c(C(=O)NC(C)C3CC3)cnn12 (centres unmarked) [III-61] | 5.5 (≈ 15.1 µM) | –
38 | Cc1cc(-c2ccc(F)cc2)n2nc(Cl)c(C(=O)N[C@@H](C)C3CC3)c2n1 [III-33] | 0.5 (≈ 1.34 µM) | –
39 | Cc1cc(-c2cncc(Cl)c2)nc2c(C(=O)N[C@H](C3CC3)C(F)(F)F)cnn12 [III-120] | 0.7 (≈ 1.71 µM) | –
40 | COCc1cc(-c2cccc(OC)c2)nc2c(C(=O)NC(C)(C)C3CC3)cnn12 [III-79] | 0.5 (≈ 1.27 µM) | –
41 | Cc1cc(-c2cccc(-c3ncco3)c2)nc2c(C(=O)NC(C3CC3)C(F)(F)F)cnn12 (centres unmarked) [III-416] | 0.3 (≈ 0.68 µM) | –
42 | Cc1cc(-c2ccc(F)cc2)n2ncc(C(=O)N[C@@H](C)C3CC3)c2n1 [III-8] | 0.5 (≈ 1.48 µM) | –
43 | Cc1cc(N2CCCC(F)(F)C2)nc2c(C(=O)NC(C)C(F)(F)F)cnn12 (centres unmarked) [III-179] | 1.1 (≈ 2.81 µM) | –
44 | COc1cncc(-c2cc(C)n3ncc(C(=O)NC(C)C(F)(F)F)c3n2)c1 (centres unmarked) [III-270] | 4.9 (≈ 12.9 µM) | –
45 | Cc1cc(N2CCN(C(C)C)C2=O)nc2c(C(=O)NC(C)(C)C3CC3)cnn12 [III-230] | 2.6 (≈ 6.76 µM) | –
46 | Cc1cc(-c2cncc(F)c2)nc2c(C(=O)NC(C3CC3)C(F)(F)F)cnn12 (centres unmarked) [III-125] | 3.4 (≈ 8.64 µM) | –
47 | COc1cc(F)ccc1-c1cc(C)n2ncc(C(=O)NC(C3CC3)C(F)(F)F)c2n1 (centres unmarked) [III-149] | 1.1 (≈ 2.6 µM) | –
48 | Cc1cc(-c2ccc(F)cc2C#N)nc2c(C(=O)N[C@@H](C)C3CC3)cnn12 [III-152] | 0.5 (≈ 1.38 µM) | –
49 | Cc1cc(-c2sccc2C#N)nc2c(C(=O)NC(C)C(F)(F)F)cnn12 (centres unmarked) [III-300] | 1.4 (≈ 3.69 µM) | –
50 | Cc1cc(C)n2ncc(C(=O)NC3(C4CC4)CC3)c2n1 [III-12] | 38.4 (≈ 142 µM) | –
51 | CCc1cc(N2CCN(C(C)C)C2=O)nc2c(C(=O)NC(C)C(F)(F)F)cnn12 (centres unmarked) [III-226] | 5.9 (≈ 14.3 µM) | –
52 | Cc1cc(-c2nnc(C(C)C)o2)nc2c(C(=O)N[C@@H](C3CC3)C(F)(F)F)cnn12 [III-392] | 0.4 (≈ 0.979 µM) | –

Row | Structure (SMILES) | solubility [µg/mL] | Compound Solubility in Water [µg/mL]
53 | Cc1cc(-c2cccc(-c3ncccn3)c2)nc2c(C(=O)NC(C3CC3)C(F)(F)F)cnn12 (centres unmarked) [III-417] | 0.04 (≈ 0.0884 µM) | –
54 | Cc1cc(-c2ccc3scnc3c2)nc2c(C(=O)N[C@@H](C)C3CC3)cnn12 [III-192] | 0.2 (≈ 0.53 µM) | –
55 | COc1c(C#N)cccc1-c1cc(C)n2ncc(C(=O)N[C@@H](C)C3CC3)c2n1 [III-143] | 17.4 (≈ 46.3 µM) | –
56 | Cc1nc(-c2cc(C)n3ncc(C(=O)N[C@H](C)C(F)(F)F)c3n2)oc1C [III-345] | 1 (≈ 2.72 µM) | –
57 | Cc1cc(-c2ccc3ocnc3c2)nc2c(C(=O)N[C@H](C)C(F)(F)F)cnn12 [III-167] | 0.7 (≈ 1.8 µM) | –
58 | Cc1cc(-c2cc(F)c3c(c2)OCO3)nc2c(C(=O)NC(C)C(F)(F)F)cnn12 (centres unmarked) [III-294] | 0.6 (≈ 1.46 µM) | –
59 | Cc1ccc(-c2cc(C)n3ncc(C(=O)N[C@H](C4CC4)C(F)(F)F)c3n2)cn1 [III-279] | 1.5 (≈ 3.85 µM) | –
60 | COc1c(F)cccc1-c1cc(C)n2ncc(C(=O)N[C@@H](C)C3CC3)c2n1 [III-138] | 2.5 (≈ 6.79 µM) | –
61 | Cc1cc(-c2ccco2)nc2c(C(=O)NC(C3CC3)C(F)(F)F)cnn12 (centres unmarked) [III-186] | 0.6 (≈ 1.65 µM) | –
62 | Cc1cc(-c2ccc(F)cc2C#N)nc2c(C(=O)N[C@H](C)C3CC3)cnn12 [III-153] | 4.5 (≈ 12.4 µM) | –
63 | Cc1cc(-c2cncc(Cl)c2)nc2c(C(=O)N[C@@H](C)C3CC3)cnn12 [III-290] | 2.1 (≈ 5.9 µM) | –
64 | Cc1cc(-c2cncc(C#N)c2)nc2c(C(=O)N[C@H](C3CC3)C(F)(F)F)cnn12 [III-363] | 1.7 (≈ 4.25 µM) | –
65 | Cc1cc(-c2cnccc2C(F)(F)F)nc2c(C(=O)NC(C)C(F)(F)F)cnn12 (centres unmarked) [III-284] | 13.2 (≈ 31.6 µM) | –
66 | Cc1cc(-c2ccncc2)nc2c(C(=O)NC(C)(C)C3CC3)cnn12 [III-20] | 6.3 (≈ 18.8 µM) | –
67 | Cc1cc(N2CCCN(C(C)C)C2=O)nc2c(C(=O)NC(C)C(F)(F)F)cnn12 (centres unmarked) [III-259] | 25.8 (≈ 62.6 µM) | –
68 | Cc1cc(N2CCC(F)(F)CC2)nc2c(C(=O)NC(C)C(F)(F)F)cnn12 (centres unmarked) [III-181] | 4.5 (≈ 11.5 µM) | –
69 | CCc1cc(N2CCN(C(C)C)C2=O)nc2c(C(=O)NC(C3CC3)C(F)(F)F)cnn12 (centres unmarked) [III-224] | 1.2 (≈ 2.74 µM) | –
70 | Cc1cc(-c2cccnc2)nc2c(C(=O)N[C@@H](C3CC3)C(F)(F)F)cnn12 [III-89] | 10.4 (≈ 27.7 µM) | –
71 | CCc1cc(-c2ccccn2)nc2c(C(=O)NC(C)C3CC3)cnn12 (centres unmarked) [III-49] | 2.5 (≈ 7.45 µM) | –
72 | COc1cccc(-c2cc(C)n3ncc(C(=O)N[C@@H](C)C(F)(F)F)c3n2)c1 [III-91] | 1.7 (≈ 4.49 µM) | –
73 | Cc1cc(-c2cc(F)ccn2)nc2c(C(=O)NC(C3CC3)C(F)(F)F)cnn12 (centres unmarked) [III-205] | 0.1 (≈ 0.254 µM) | –
74 | Cc1cc(-c2ccc(Cl)nc2)nc2c(C(=O)N[C@H](C3CC3)C(F)(F)F)cnn12 [III-117] | 0.8 (≈ 1.95 µM) | –
75 | Cc1cc(-c2ccc(F)c(C#N)c2)nc2c(C(=O)NC(C3CC3)C(F)(F)F)cnn12 (centres unmarked) [III-158] | 0.3 (≈ 0.719 µM) | –
76 | Cc1cc(-c2cccc3ocnc23)nc2c(C(=O)NC(C3CC3)C(F)(F)F)cnn12 (centres unmarked) [III-106] | 0.1 (≈ 0.241 µM) | –
77 | Cc1cc(-c2cccnc2F)nc2c(C(=O)NC(C3CC3)C(F)(F)F)cnn12 (centres unmarked) [III-113] | – | 1.0
